Holding throughout (experiment): relative viability (nuclei count vs DMSO), 5 days (fraction); higher = more cells survive
Compound in assay [1]: CC1=C(C=C(C=C1)NC(=O)C2=CC(=CC=C2)C(C)(C)C#N)NC3=CC4=C(C=C3)N=CN(C4=O)C [AZ628] + CC(C)C[C@H](NC(=O)[C@H](Cc1ccccc1)NC(=O)c1cnccn1)B(O)O [Bortezomib] (partner 0.002 µM)
In short, it runs like this: (§1)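 Cells from lung cancer lines were seeded into 1536-well plates and, one day later, dosed by pin tool. Treatments were either a single drug or a fixed dose of an anchor drug with five library-drug doses (not always all listed) in √10 steps. After 5 days, nuclei were stained in a one-step fixation (final 0.05% Triton X-100, 1% formaldehyde, 1 ug/ml Hoechst) and counted on 4× images, and relative viability is the treated-to-vehicle nuclei ratio, as the median of duplicate plates.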

Compound in assay [2]: C[As](C)SC[C@H](NC(=O)CC[C@H](N)C(=O)O)C(=O)NCC(=O)O [Darinaparsin] + CC(C)C[C@H](NC(=O)[C@H](Cc1ccccc1)NC(=O)c1cnccn1)B(O)O [Bortezomib] (partner 0.002 µM)
The method in brief:
as §1

Compound in assay [3]: C1CC2=C(C1)C=C(C=C2)OC3=NC(=C4C(=N3)N(C=N4)CC5=CC=C(C=C5)C6=CC=CC=C6)N[C@@H](CC7=CC=CC=C7)CO [QS11] + COc1cccc2cc(-c3nc([C@H]4CC[C@H](C(=O)O)CC4)n4ncnc(N)c34)[nH]c12 [OSI-027] (partner 0.5 µM)
The method in brief:
as §1

Compound in assay [4]: C1CC2=C(C1)C=C(C=C2)OC3=NC(=C4C(=N3)N(C=N4)CC5=CC=C(C=C5)C6=CC=CC=C6)N[C@@H](CC7=CC=CC=C7)CO [QS11] + N=C(N)NC(=N)NCCc1ccccc1 [Phenformin] (partner 250 µM)
In short, it runs like this: as §1

The text below walks through data of the supplement of paper PMC10307832.

As to IA-LM, the relative viability in assay [1] (first compound 0.08 µM) was found to be 0.931; in assay [1] (first compound 0.253 µM), 0.689; in assay [1] (first compound 0.8 µM) it was 0.54; in assay [1] (first compound 2.53 µM), 0.551; in assay [1] (first compound 8 µM), 0.165; in assay [2] (first compound 0.08 µM), 0.893. In addition, the relative viability is 1.08 in assay [2] (first compound 0.8 µM), 1.32 in assay [2] (first compound 2.53 µM) and 1.01 in assay [2] (first compound 8 µM).

As for NCI-H1395, the relative viability in assay [3] (first compound 0.08 µM) stood at 0.603; in assay [3] (first compound 0.253 µM) it was 0.718; in assay [3] (first compound 0.8 µM) it was 0.626; in assay [3] (first compound 2.53 µM), 0.735; in assay [3] (first compound 8 µM) it was 0.637; in assay [4] (first compound 0.08 µM), 0.397. Also, the relative viability in assay [4] (first compound 0.253 µM) turned out to be 0.437; in assay [4] (first compound 0.8 µM) it was 0.425; in assay [4] (first compound 2.53 µM) it was 0.457; in assay [4] (first compound 8 µM) it was 0.453.

With NCI-H1944, the relative viability in assay [3] (first compound 0.08 µM) was 0.41; in assay [3] (first compound 0.253 µM), 0.387; in assay [3] (first compound 2.53 µM) it was 0.378; in assay [3] (first compound 8 µM), 0.314; in assay [4] (first compound 0.08 µM), 0.202; in assay [4] (first compound 0.253 µM) it was 0.204. In addition, the relative viability in assay [4] (first compound 2.53 µM) was 0.196; in assay [4] (first compound 8 µM) it was 0.145.

Turning to SK-MES-1, the relative viability in assay [3] (first compound 0.08 µM) was determined as 0.627; in assay [3] (first compound 0.253 µM), 0.575; in assay [3] (first compound 0.8 µM), 0.544; in assay [3] (first compound 2.53 µM), 0.615; in assay [3] (first compound 8 µM), 0.623; in assay [4] (first compound 0.08 µM), 0.764. Also, the relative viability in assay [4] (first compound 0.253 µM) came to 0.678; in assay [4] (first compound 0.8 µM), 0.663; in assay [4] (first compound 2.53 µM), 0.712; in assay [4] (first compound 8 µM), 0.711.

On to Calu-6, for which the relative viability in assay [1] (first compound 0.08 µM) came out at 1.03; in assay [1] (first compound 0.253 µM) it was 0.943; in assay [1] (first compound 0.8 µM), 0.61; in assay [1] (first compound 2.53 µM) it was 0.792; in assay [1] (first compound 8 µM), 0.244; in assay [2] (first compound 0.08 µM), 1.04. Moreover, the relative viability is 0.968 in assay [2] (first compound 0.8 µM), 0.949 in assay [2] (first compound 2.53 µM) and 0.945 in assay [2] (first compound 8 µM).

In the case of NCI-H2170, the relative viability in assay [3] (first compound 0.08 µM) came out at 0.691; in assay [3] (first compound 0.253 µM), 0.692; in assay [3] (first compound 0.8 µM), 0.703; in assay [3] (first compound 2.53 µM), 0.8; in assay [3] (first compound 8 µM), 0.743; in assay [4] (first compound 0.08 µM), 0.436. Besides, the relative viability in assay [4] (first compound 0.253 µM) turned out to be 0.404; in assay [4] (first compound 0.8 µM), 0.399; in assay [4] (first compound 2.53 µM), 0.44; in assay [4] (first compound 8 µM), 0.392.

As for NCI-H1648, the relative viability is 0.26 in assay [3] (first compound 0.253 µM), 0.275 in assay [3] (first compound 2.53 µM) and 0.247 in assay [3] (first compound 8 µM).

On to NCI-H1793, for which the relative viability in assay [3] (first compound 0.08 µM) is 0.248; in assay [3] (first compound 0.253 µM), 0.27; in assay [3] (first compound 0.8 µM) it was 0.277; in assay [3] (first compound 2.53 µM), 0.341; in assay [3] (first compound 8 µM) it was 0.332; in assay [4] (first compound 0.08 µM), 0.304. For the same cell line, the relative viability was determined as 0.386 in assay [4] (first compound 0.253 µM), 0.355 in assay [4] (first compound 0.8 µM), 0.345 in assay [4] (first compound 2.53 µM) and 0.376 in assay [4] (first compound 8 µM).

Regarding NCI-H2342, the relative viability in assay [3] (first compound 0.08 µM) is 0.643; in assay [3] (first compound 0.253 µM), 0.703; in assay [3] (first compound 0.8 µM), 0.611; in assay [3] (first compound 2.53 µM), 0.663; in assay [3] (first compound 8 µM), 0.636; in assay [4] (first compound 0.08 µM), 0.632. Further, the relative viability came to 0.62 in assay [4] (first compound 0.253 µM), 0.638 in assay [4] (first compound 0.8 µM), 0.599 in assay [4] (first compound 2.53 µM) and 0.615 in assay [4] (first compound 8 µM).

Turning to NCI-H522, the relative viability worked out at 0.733 in assay [3] (first compound 0.08 µM); 0.795 in assay [3] (first compound 0.253 µM); 0.722 in assay [3] (first compound 0.8 µM); 0.727 in assay [3] (first compound 2.53 µM); 1.97 in assay [3] (first compound 8 µM); 0.689 in assay [4] (first compound 0.08 µM). Besides, the relative viability in assay [4] (first compound 0.253 µM) is 0.656; in assay [4] (first compound 0.8 µM), 0.621; in assay [4] (first compound 2.53 µM), 0.705; in assay [4] (first compound 8 µM), 0.677.

Regarding A549, the relative viability was determined as 0.115 in assay [4] (first compound 0.08 µM); 0.256 in assay [4] (first compound 0.253 µM); 0.154 in assay [4] (first compound 0.8 µM); 0.125 in assay [4] (first compound 2.53 µM); 0.197 in assay [4] (first compound 8 µM).

As to NCI-H1703, the relative viability in assay [1] (first compound 0.08 µM) came to 0.266; in assay [1] (first compound 0.253 µM) it was 0.207; in assay [1] (first compound 0.8 µM), 0.203; in assay [1] (first compound 2.53 µM), 0.166; in assay [1] (first compound 8 µM) it was 0.224; in assay [2] (first compound 0.08 µM) it was 0.317. For the same cell line, the results for the relative viability in assay [2] (first compound 0.8 µM), in assay [2] (first compound 2.53 µM) and in assay [2] (first compound 8 µM) were 0.338, 0.39 and 0.33, respectively.

For the cell line NCI-H1299, the relative viability was determined as 1.07 in assay [1] (first compound 0.08 µM); 1.13 in assay [1] (first compound 0.253 µM); 1.19 in assay [1] (first compound 0.8 µM); 1.25 in assay [1] (first compound 2.53 µM); 1.04 in assay [1] (first compound 8 µM); 1.01 in assay [2] (first compound 0.08 µM). For the same cell line, the relative viability in assay [2] (first compound 0.8 µM) is 0.99; in assay [2] (first compound 2.53 µM) it was 1.03; in assay [2] (first compound 8 µM), 1.04.

In the case of NCI-H1623, the relative viability in assay [3] (first compound 0.08 µM) amounted to 0.417; in assay [3] (first compound 0.253 µM), 0.386; in assay [3] (first compound 0.8 µM), 0.415; in assay [3] (first compound 2.53 µM) it was 0.445; in assay [3] (first compound 8 µM), 0.426; in assay [4] (first compound 0.08 µM), 0.497. The relative viability in assay [4] (first compound 0.253 µM) was determined as 0.576; in assay [4] (first compound 0.8 µM) it was 0.489; in assay [4] (first compound 2.53 µM) it was 0.548; in assay [4] (first compound 8 µM) it was 0.602.

As for EBC-1, the relative viability was 0.636 in assay [1] (first compound 0.08 µM); 0.605 in assay [1] (first compound 0.253 µM); 0.642 in assay [1] (first compound 0.8 µM); 0.685 in assay [1] (first compound 2.53 µM); 0.472 in assay [1] (first compound 8 µM); 0.473 in assay [2] (first compound 0.08 µM). The relative viability was determined as 0.559 in assay [2] (first compound 0.8 µM), 0.471 in assay [2] (first compound 2.53 µM) and 0.507 in assay [2] (first compound 8 µM).

Regarding SW 900, the relative viability was determined as 0.547 in assay [3] (first compound 0.08 µM); 0.601 in assay [3] (first compound 0.253 µM); 0.661 in assay [3] (first compound 0.8 µM); 0.487 in assay [3] (first compound 2.53 µM); 0.423 in assay [3] (first compound 8 µM); 0.54 in assay [4] (first compound 0.08 µM). The relative viability is 0.578 in assay [4] (first compound 0.253 µM), 0.709 in assay [4] (first compound 0.8 µM), 0.417 in assay [4] (first compound 2.53 µM) and 0.402 in assay [4] (first compound 8 µM).
